Experimental data reported in ChEMBL document CHEMBL3124753, “Synthesis of 2-amino-3-cyano-4H-chromen-4-ylphosphonates and their anticancer properties” (2014).

Key:
Assay type in all cases: functional
[1] = test system: KB; assay: Growth inhibition of human KB cells at 4 uM after 24 hrs by MTT assay relative to control; settings: read-out: GI
[2] = test system: A549; assay: Growth inhibition of human A549 cells at 40 uM after 24 hrs by MTT assay relative to control; settings: A549, 24 h, read-out: GI
[3] = test system: A549; assay: Growth inhibition of human A549 cells at 4 uM after 24 hrs by MTT assay relative to control; settings: A549, 24 h, read-out: GI
[4] = test system: A549; assay: Growth inhibition of human A549 cells at 2 uM after 24 hrs by MTT assay relative to control; settings: A549, 24 h, read-out: GI
[5] = test system: A549; assay: Growth inhibition of human A549 cells at 20 uM after 24 hrs by MTT assay relative to control; settings: A549, 24 h, read-out: GI
[6] = test system: KB; assay: Growth inhibition of human KB cells at 2 uM after 24 hrs by MTT assay relative to control; settings: read-out: GI
[7] = test system: KB; assay: Growth inhibition of human KB cells at 40 uM after 24 hrs by MTT assay relative to control; settings: read-out: GI
[8] = test system: KB; assay: Growth inhibition of human KB cells at 20 uM after 24 hrs by MTT assay relative to control; settings: read-out: GI

CCOP(=O)(OCC)C1C(C#N)=C(N)Oc2ccccc21 (stereo unspecified)
inhibition of growth at 4 µM [1]: 15.2%
inhibition of growth at 40 µM [2]: 51%
inhibition of growth at 4 µM [3]: 6.25%
inhibition of growth at 2 µM [4]: 4.12%
inhibition of growth at 20 µM [5]: 18.4%
inhibition of growth at 2 µM [6]: 0.12%
inhibition of growth at 40 µM [7]: 60.1%
inhibition of growth at 20 µM [8]: 19.4%

CC(C)OP(=O)(OC(C)C)C1C(C#N)=C(N)Oc2ccccc21 (stereo unspecified)
inhibition of growth at 4 µM [1]: 5.21%
inhibition of growth at 40 µM [2]: 5.47%
inhibition of growth at 4 µM [3]: 1.2%
inhibition of growth at 2 µM [4]: 0.82%
inhibition of growth at 20 µM [5]: 3.5%
inhibition of growth at 2 µM [6]: 2.5%
inhibition of growth at 40 µM [7]: 9.22%
inhibition of growth at 20 µM [8]: 8.93%

CCCCOP(=O)(OCCCC)C1C(C#N)=C(N)Oc2ccccc21 (stereo unspecified)
inhibition of growth at 4 µM [1]: 6.8%
inhibition of growth at 40 µM [2]: 30.2%
inhibition of growth at 4 µM [3]: 7.82%
inhibition of growth at 2 µM [4]: 3.51%
inhibition of growth at 20 µM [5]: 21.7%
inhibition of growth at 2 µM [6]: 6.45%
inhibition of growth at 40 µM [7]: 40.4%
inhibition of growth at 20 µM [8]: 17.6%

CCOP(=O)(OCC)C1C(C#N)=C(N)Oc2ccc(Br)cc21 (stereo unspecified)
inhibition of growth at 4 µM [1]: 10%
inhibition of growth at 40 µM [2]: 60.8%
inhibition of growth at 4 µM [3]: 9.05%
inhibition of growth at 2 µM [4]: 0.52%
inhibition of growth at 20 µM [5]: 20.3%
inhibition of growth at 2 µM [6]: 6.8%
inhibition of growth at 40 µM [7]: 81.8%
inhibition of growth at 20 µM [8]: 12%

CC(C)OP(=O)(OC(C)C)C1C(C#N)=C(N)Oc2ccc(Br)cc21 (stereo unspecified)
inhibition of growth at 4 µM [1]: 15%
inhibition of growth at 40 µM [2]: 12.5%
inhibition of growth at 4 µM [3]: 1.6%
inhibition of growth at 2 µM [4]: 0.32%
inhibition of growth at 20 µM [5]: 10.5%
inhibition of growth at 2 µM [6]: 9.45%
inhibition of growth at 40 µM [7]: 25.4%
inhibition of growth at 20 µM [8]: 20.3%

CCCCOP(=O)(OCCCC)C1C(C#N)=C(N)Oc2ccc(Br)cc21 (stereo unspecified)
inhibition of growth at 4 µM [1]: 10.3%
inhibition of growth at 40 µM [2]: 26.7%
inhibition of growth at 4 µM [3]: 8.94%
inhibition of growth at 2 µM [4]: 0.52%
inhibition of growth at 20 µM [5]: 17.5%
inhibition of growth at 2 µM [6]: 9.5%
inhibition of growth at 40 µM [7]: 45.2%
inhibition of growth at 20 µM [8]: 11.5%

CCOP(=O)(OCC)C1C(C#N)=C(N)Oc2ccc([N+](=O)[O-])cc21 (stereo unspecified)
inhibition of growth at 4 µM [1]: 6.08%
inhibition of growth at 40 µM [2]: 3.9%
inhibition of growth at 4 µM [3]: 2.89%
inhibition of growth at 2 µM [4]: 0.33%
inhibition of growth at 20 µM [5]: 3.1%
inhibition of growth at 2 µM [6]: 4.5%
inhibition of growth at 40 µM [7]: 8.29%
inhibition of growth at 20 µM [8]: 6.18%

CC(C)OP(=O)(OC(C)C)C1C(C#N)=C(N)Oc2ccc([N+](=O)[O-])cc21 (stereo unspecified)
inhibition of growth at 4 µM [1]: 8.5%
inhibition of growth at 40 µM [2]: 26.9%
inhibition of growth at 4 µM [3]: 6.25%
inhibition of growth at 2 µM [4]: 2.5%
inhibition of growth at 20 µM [5]: 16.8%
inhibition of growth at 2 µM [6]: 6.07%
inhibition of growth at 40 µM [7]: 23.3%
inhibition of growth at 20 µM [8]: 16.2%

CCCCOP(=O)(OCCCC)C1C(C#N)=C(N)Oc2ccc([N+](=O)[O-])cc21 (stereo unspecified)
inhibition of growth at 4 µM [1]: 6%
inhibition of growth at 40 µM [2]: 15.8%
inhibition of growth at 4 µM [3]: 8.21%
inhibition of growth at 2 µM [4]: 6.3%
inhibition of growth at 20 µM [5]: 7.94%
inhibition of growth at 2 µM [6]: 0.58%
inhibition of growth at 40 µM [7]: 33.8%
inhibition of growth at 20 µM [8]: 14.5%

CCOP(=O)(OCC)C1C(C#N)=C(N)Oc2c1cccc2C(C)(C)C (stereo unspecified)
inhibition of growth at 4 µM [1]: 7.4%
inhibition of growth at 40 µM [2]: 14.9%
inhibition of growth at 4 µM [3]: 4.34%
inhibition of growth at 2 µM [4]: 3.72%
inhibition of growth at 20 µM [5]: 12%
inhibition of growth at 2 µM [6]: 5.65%
inhibition of growth at 40 µM [7]: 27.3%
inhibition of growth at 20 µM [8]: 11.5%

CC(C)OP(=O)(OC(C)C)C1C(C#N)=C(N)Oc2c1cccc2C(C)(C)C (stereo unspecified)
inhibition of growth at 4 µM [1]: 6.5%
inhibition of growth at 40 µM [2]: 14.9%
inhibition of growth at 4 µM [3]: 8.23%
inhibition of growth at 2 µM [4]: 3.1%
inhibition of growth at 20 µM [5]: 13.9%
inhibition of growth at 2 µM [6]: 5.5%
inhibition of growth at 40 µM [7]: 20.6%
inhibition of growth at 20 µM [8]: 12.5%

CCCCOP(=O)(OCCCC)C1C(C#N)=C(N)Oc2c1cccc2C(C)(C)C (stereo unspecified)
inhibition of growth at 4 µM [1]: 13.9%
inhibition of growth at 40 µM [2]: 13.7%
inhibition of growth at 4 µM [3]: 10.5%
inhibition of growth at 2 µM [4]: 9.5%
inhibition of growth at 20 µM [5]: 11.2%
inhibition of growth at 2 µM [6]: 11.2%
inhibition of growth at 40 µM [7]: 19.8%
inhibition of growth at 20 µM [8]: 14.5%
